Assay results: ChEMBL document CHEMBL1150785 (Antimicrob Agents Chemother, 2007)

Test system: Mycobacterium tuberculosis
Assay: Effect on mutation frequency of Mycobacterium tuberculosis H37Ra assessed as mutation prevention concentration
Format: functional

`NNC(=O)c1ccncc1` [ISONIAZID] was tested, and the Activity was 50 mg/L.
